ChEMBL document CHEMBL1130281, “Structure-based design of a new bisintercalating anthracycline antibiotic” (1997)
pIC50: −log10 of the molar value.

Assays:
MCF7 = test: In vitro cytotoxicity against human breast carcinoma cell line (MCF-7); assay type: functional; details: read-out: ID50 (the source's name)
MCF7-VP = test: In vitro cytotoxicity against multi drug resistant human breast carcinoma (MCF-7/VP-16) cell line; assay type: functional; details: read-out: ID50 (the source's name)
[1] = RI is the ratio of cytotoxicity against MCF-7/VP-16 cell line to that of MCF-7 cell line; assay type: functional, MCF7

In the case of `COc1cccc2c1C(=O)c1c(O)c3c(c(O)c1C2=O)C[C@@](O)(C(C)=O)C[C@@H]3OC1CC(NCc2ccc(CNC3CC(O[C@H]4C[C@](O)(C(C)=O)Cc5c(O)c6c(c(O)c54)C(=O)c4c(OC)cccc4C6=O)OC(C)C3O)cc2)C(O)C(C)O1.Cl.Cl` (some centres undefined) [BISANTHRACYCLINE (WP631)], the pIC50 (MCF7) was 5.32, the pIC50 (MCF7-VP) was 5.60 and the RI [1] was 0.5.
In the case of `COc1cccc2c1C(=O)c1c(O)c3c(c(O)c1C2=O)C[C@@](O)(C(=O)CO)C[C@@H]3O[C@H]1C[C@H](N)[C@H](O)[C@H](C)O1` [DOXORUBICIN], the pIC50 (MCF7-VP) was 4.85.
